Biological target: T1, adenosine transporter (AT; NBMPR-sensitive equilibrative nucleoside transporter subtype, ENT) (Homo sapiens, UniProt Q99808)
T1 sequence (Q99808 2-456): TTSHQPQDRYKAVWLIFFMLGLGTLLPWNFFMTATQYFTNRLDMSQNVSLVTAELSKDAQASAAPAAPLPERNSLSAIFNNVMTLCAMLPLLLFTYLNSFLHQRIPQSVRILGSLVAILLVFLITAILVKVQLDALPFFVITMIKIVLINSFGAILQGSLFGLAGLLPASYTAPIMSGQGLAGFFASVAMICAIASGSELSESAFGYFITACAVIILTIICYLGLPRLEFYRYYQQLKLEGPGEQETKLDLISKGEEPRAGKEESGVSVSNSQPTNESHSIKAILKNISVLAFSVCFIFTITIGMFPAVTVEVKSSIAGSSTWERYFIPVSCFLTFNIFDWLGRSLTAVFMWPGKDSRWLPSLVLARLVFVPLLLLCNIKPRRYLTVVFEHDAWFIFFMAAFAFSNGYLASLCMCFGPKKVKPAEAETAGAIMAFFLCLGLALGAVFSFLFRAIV
Test: [3H]adenosine uptake inhibition in HeLa cells
Assay type: cell-based
Settings: read-out: Findings

IC50: 280 nM
SMILES: COCCOc1cnc2ccn([C@H](C)c3nnc4c(F)cc(-c5cnn(C)c5)cn34)c(=O)c2c1 [AMG 337]
